According to ChEMBL document CHEMBL6087488, “Development of the First-in-Class FEM1B-Recruiting Histone Deacetylase Degraders” (J Med Chem, 2025):
pEC50, pIC50: −log10 of the molar value. The source made the active and inactive calls. The rule behind the calls is not given here.

Columns and labels:
[1] = biological target: T1, Protein fem-1 homolog B/Histone deacetylase 1 (Homo sapiens, UniProt Q13547+Q9UK73); assay: PROTAC activity at FEM1B/HDAC1 in human MM1.S cell lysate assessed as neddylation-dependent protein degradation at 1 uM measured after 24 hrs by Western immunoassay; assay type: subcellular
Target sequence in this assay (Q13547 whole entry, looked up): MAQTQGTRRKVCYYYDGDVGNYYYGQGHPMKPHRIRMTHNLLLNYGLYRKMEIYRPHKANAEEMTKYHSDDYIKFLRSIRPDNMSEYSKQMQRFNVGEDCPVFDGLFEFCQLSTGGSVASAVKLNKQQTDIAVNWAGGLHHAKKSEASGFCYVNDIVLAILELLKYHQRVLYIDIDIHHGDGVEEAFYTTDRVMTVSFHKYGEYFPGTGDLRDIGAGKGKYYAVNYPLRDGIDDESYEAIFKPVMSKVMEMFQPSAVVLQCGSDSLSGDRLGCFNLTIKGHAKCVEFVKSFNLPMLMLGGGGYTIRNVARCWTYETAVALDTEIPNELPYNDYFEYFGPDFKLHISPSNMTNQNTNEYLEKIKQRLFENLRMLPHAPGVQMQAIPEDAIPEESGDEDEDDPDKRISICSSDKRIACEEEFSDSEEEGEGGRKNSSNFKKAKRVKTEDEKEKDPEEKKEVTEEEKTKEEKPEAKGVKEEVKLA
Target sequence in this assay (Q9UK73 whole entry, looked up): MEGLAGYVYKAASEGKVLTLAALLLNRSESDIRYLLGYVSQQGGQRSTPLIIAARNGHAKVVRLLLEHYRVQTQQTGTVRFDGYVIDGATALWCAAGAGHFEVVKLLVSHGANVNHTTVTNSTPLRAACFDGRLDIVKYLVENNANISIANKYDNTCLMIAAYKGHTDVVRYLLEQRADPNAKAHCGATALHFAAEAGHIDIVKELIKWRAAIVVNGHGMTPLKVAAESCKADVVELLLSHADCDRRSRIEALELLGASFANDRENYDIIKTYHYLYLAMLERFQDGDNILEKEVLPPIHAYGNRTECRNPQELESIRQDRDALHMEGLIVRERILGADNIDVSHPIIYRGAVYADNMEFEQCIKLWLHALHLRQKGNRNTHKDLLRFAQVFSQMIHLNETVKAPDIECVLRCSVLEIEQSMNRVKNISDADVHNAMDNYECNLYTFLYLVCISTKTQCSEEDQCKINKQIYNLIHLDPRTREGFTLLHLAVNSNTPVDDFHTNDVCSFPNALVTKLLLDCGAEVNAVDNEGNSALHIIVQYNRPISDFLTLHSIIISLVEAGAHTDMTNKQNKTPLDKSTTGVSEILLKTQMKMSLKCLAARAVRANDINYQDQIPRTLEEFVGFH

[2] = biological target: T1, Protein fem-1 homolog B/Histone deacetylase 1; assay: PROTAC activity at FEM1B/HDAC1 in human MV4-11 cell lysate assessed as protein degradation at 10 uM measured after 24 hrs by Western immunoassay relative to control; assay type: subcellular
Target sequence in this assay (Q13547 whole entry, looked up): as the sequence (Q13547 whole entry, looked up) above
Target sequence in this assay (Q9UK73 whole entry, looked up): as the sequence (Q9UK73 whole entry, looked up) above

[3] = biological target: T1, Protein fem-1 homolog B/Histone deacetylase 1; assay: PROTAC activity at FEM1B/HDAC1 in human MDA-MB-231 cell lysate assessed as protein degradation at 10 uM measured after 24 hrs by Western immunoassay relative to control; assay type: subcellular
Target sequence in this assay (Q13547 whole entry, looked up): as the sequence (Q13547 whole entry, looked up) above
Target sequence in this assay (Q9UK73 whole entry, looked up): as the sequence (Q9UK73 whole entry, looked up) above

[4] = biological target: T1, Protein fem-1 homolog B/Histone deacetylase 1; assay: PROTAC activity at FEM1B/HDAC1 in human U-87 MG cell lysate assessed as protein degradation at 10 uM measured after 24 hrs by Western immunoassay relative to control; assay type: subcellular
Target sequence in this assay (Q13547 whole entry, looked up): as the sequence (Q13547 whole entry, looked up) above
Target sequence in this assay (Q9UK73 whole entry, looked up): as the sequence (Q9UK73 whole entry, looked up) above

MV4-11 = assay: Antiproliferative activity against human MV4-11 cells assessed as cell viability measured after 72 hrs incubation by MTT assay; assay type: functional, cell-based; conditions: MV4-11, 72 h
MDA-MB-231 [5] = assay: Antiproliferative activity against human MDA-MB-231 cells assessed as cell viability up to 50 uM measured after 72 hrs incubation by MTT assay relative to control; assay type: functional
U-87 MG [6] = assay: Antiproliferative activity against human U-87 MG cells assessed as cell viability up to 50 uM measured after 72 hrs incubation by MTT assay relative to control; assay type: functional, U-87MG ATCC
MM1.S [7] = assay: Induction of cell cycle arrest in human MM1.S cells assessed as reduction in cells at […] phase at 10 uM measured after 48 hrs by propidium iodide based flow cytometry; assay type: functional
MM1.S [8] = assay: Induction of cell cycle arrest in human MM1.s cells assessed as increase in cells at Sub-G1 phase at 10 uM measured after 48 hrs by propidium iodide based flow cytometry; assay type: functional
MM1.S [9] = assay: Induction of apoptosis in human MM1.S cells assessed as increase in early apoptotic cells at 10 uM measured after 48 hrs by annexin V-FITC/PI staining based assay; assay type: functional, cell-based
MM1.S [10] = assay: Induction of apoptosis in human MM1.S cells assessed as increase in late apoptotic cells at 10 uM measured after 48 hrs by annexin V-FITC/PI staining based assay; assay type: functional, cell-based
MM1.S [11] = assay: Antiproliferative activity against human MM1.S cells assessed as cell viability up to 50 uM measured after 72 hrs incubation by MTT assay; assay type: functional
MM1.S [12] = assay: Antiproliferative activity against human MM1.S cells assessed as cell viability measured after 72 hrs by CellTiter-Glo cell viability assay; assay type: functional, cell-based
[13] = biological target: T1, Protein fem-1 homolog B/Histone deacetylase 1; assay: PROTAC activity at FEM1B/HDAC1 in human MM1.S cell lysate assessed as initial degradation measured after 24 hrs by Western immunoassay; assay type: subcellular
Target sequence in this assay (Q13547 whole entry): as the sequence (Q13547 whole entry, looked up) above
Target sequence in this assay (Q9UK73 whole entry): as the sequence (Q9UK73 whole entry, looked up) above

Histone deacetylase 1 = Histone deacetylase 1 (Homo sapiens, UniProt Q13547); assay: Inhibition of human recombinant HDAC1 using ZMAL (Z-(Ac)Lys-AMC) as substrate incubated for 90 mins by fluorescence based assay
Sequence of Histone deacetylase 1 (Q13547 whole entry): as the sequence (Q13547 whole entry, looked up) above

Histone deacetylase 2 = Histone deacetylase 2 (Homo sapiens, UniProt Q92769); assay: Inhibition of human HDAC2 using ZMAL (Z-(Ac)Lys-AMC) as substrate incubated for 90 mins by fluorescence based assay
Sequence of Histone deacetylase 2 (Q92769 whole entry): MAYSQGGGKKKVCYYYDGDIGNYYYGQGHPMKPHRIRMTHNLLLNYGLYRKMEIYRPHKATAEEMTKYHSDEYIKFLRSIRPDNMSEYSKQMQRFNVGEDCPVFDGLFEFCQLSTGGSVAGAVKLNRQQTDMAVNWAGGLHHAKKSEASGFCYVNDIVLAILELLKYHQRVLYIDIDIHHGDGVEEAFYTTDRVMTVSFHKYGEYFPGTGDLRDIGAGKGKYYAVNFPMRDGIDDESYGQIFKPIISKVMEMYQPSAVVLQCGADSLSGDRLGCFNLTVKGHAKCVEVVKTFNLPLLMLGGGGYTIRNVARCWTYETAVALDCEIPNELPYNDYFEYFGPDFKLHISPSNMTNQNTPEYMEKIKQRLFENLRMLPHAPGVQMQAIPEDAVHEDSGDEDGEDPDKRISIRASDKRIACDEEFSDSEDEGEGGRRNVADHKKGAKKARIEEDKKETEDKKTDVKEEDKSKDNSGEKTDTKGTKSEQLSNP

Histone deacetylase 4 = Histone deacetylase 4 (Homo sapiens, UniProt P56524); assay: Inhibition of human HDAC4 using Boc-Lys(Tfa)-AMC as substrate incubated for 90 mins by fluorescence based assay; conditions: for pIC50: read-out: IC50
Sequence of Histone deacetylase 4 (P56524 whole entry): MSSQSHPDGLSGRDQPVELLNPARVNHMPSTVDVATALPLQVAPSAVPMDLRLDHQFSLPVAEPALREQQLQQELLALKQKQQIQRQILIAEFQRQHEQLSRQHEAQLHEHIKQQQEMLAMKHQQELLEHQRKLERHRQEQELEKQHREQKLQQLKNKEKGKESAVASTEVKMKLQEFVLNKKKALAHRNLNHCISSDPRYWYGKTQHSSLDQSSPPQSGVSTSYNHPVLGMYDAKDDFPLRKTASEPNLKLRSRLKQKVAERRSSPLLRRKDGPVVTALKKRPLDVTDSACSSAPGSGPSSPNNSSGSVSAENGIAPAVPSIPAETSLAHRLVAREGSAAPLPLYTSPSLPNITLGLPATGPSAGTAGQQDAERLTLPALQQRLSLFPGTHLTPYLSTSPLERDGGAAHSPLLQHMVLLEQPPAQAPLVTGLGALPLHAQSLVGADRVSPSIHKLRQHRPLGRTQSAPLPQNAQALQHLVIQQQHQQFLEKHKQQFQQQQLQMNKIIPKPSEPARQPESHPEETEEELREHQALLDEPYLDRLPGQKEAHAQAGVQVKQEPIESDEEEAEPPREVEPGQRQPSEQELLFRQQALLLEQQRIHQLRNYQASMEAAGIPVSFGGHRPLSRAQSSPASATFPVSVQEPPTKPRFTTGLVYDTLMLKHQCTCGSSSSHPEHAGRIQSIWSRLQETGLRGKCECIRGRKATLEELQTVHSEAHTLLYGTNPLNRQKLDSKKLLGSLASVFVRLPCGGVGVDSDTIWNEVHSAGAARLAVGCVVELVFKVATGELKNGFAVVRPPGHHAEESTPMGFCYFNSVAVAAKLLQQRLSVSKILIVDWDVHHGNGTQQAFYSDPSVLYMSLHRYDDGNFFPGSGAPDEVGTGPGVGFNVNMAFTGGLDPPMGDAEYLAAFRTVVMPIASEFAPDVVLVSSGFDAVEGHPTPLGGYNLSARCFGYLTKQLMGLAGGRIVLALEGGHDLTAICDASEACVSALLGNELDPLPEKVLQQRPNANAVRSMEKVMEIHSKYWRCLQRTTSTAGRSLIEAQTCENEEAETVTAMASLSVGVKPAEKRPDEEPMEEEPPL

[14] = biological target: T2, Protein deacetylase HDAC6 (Homo sapiens, UniProt Q9UBN7); assay: Inhibition of human HDAC6 using ZMAL (Z-(Ac)Lys-AMC) as substrate incubated for 90 mins by fluorescence based assay
T2 sequence (Q9UBN7 whole entry): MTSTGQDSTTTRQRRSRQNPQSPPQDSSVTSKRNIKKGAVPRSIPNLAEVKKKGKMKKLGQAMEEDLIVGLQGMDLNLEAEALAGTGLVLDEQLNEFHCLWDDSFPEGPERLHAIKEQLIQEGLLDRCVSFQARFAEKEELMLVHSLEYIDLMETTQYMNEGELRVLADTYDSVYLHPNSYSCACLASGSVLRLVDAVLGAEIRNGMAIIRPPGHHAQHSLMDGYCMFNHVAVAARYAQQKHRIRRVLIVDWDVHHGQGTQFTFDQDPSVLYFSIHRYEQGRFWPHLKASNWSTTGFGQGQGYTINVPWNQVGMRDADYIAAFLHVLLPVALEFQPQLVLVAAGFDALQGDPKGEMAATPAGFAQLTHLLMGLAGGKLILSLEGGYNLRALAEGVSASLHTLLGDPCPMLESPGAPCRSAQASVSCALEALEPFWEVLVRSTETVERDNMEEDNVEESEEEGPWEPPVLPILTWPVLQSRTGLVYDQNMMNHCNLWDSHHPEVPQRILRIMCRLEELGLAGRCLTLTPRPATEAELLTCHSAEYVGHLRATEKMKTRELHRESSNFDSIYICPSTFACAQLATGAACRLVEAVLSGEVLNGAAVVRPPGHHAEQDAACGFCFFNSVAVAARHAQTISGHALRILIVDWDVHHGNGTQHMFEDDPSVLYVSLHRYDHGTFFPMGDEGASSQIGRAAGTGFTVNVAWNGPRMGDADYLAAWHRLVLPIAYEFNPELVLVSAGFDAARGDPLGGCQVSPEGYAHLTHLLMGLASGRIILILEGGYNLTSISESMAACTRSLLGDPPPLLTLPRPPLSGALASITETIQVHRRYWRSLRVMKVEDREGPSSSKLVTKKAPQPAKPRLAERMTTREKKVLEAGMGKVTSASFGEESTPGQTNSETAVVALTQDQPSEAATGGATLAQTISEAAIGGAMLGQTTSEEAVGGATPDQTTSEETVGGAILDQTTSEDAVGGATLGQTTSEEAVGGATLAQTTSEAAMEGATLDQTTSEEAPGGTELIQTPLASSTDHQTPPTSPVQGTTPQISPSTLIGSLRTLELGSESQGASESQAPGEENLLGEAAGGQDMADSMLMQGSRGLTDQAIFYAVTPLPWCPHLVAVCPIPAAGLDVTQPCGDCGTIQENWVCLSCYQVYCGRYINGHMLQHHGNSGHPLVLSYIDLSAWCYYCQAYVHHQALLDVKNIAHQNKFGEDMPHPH

MDA-MB-231 [15] = assay: Antiproliferative activity against human MDA-MB-231 cells assessed as cell viability measured after 72 hrs incubation by MTT assay; assay type: functional, cell-based; conditions: MDA-MB-231, 72 h
U-87 MG [16] = assay: Antiproliferative activity against human U-87 MG cells assessed as cell viability measured after 72 hrs incubation by MTT assay; assay type: functional, cell-based, U-87MG ATCC
MM1.S [17] = assay: Antiproliferative activity against human MM1.S cells assessed as cell viability up to 50 uM measured after 72 hrs by CellTiter-Glo cell viability assay; assay type: functional, cell-based
[18] = biological target: T1, Protein fem-1 homolog B/Histone deacetylase 1; assay: PROTAC activity at FEM1B/HDAC1 in human MM1.S cell lysate assessed as initial degradation at 1 uM measured after 24 hrs by Western immunoassay; assay type: subcellular
Target sequence in this assay (Q13547 whole entry, looked up): as the sequence (Q13547 whole entry, looked up) above
Target sequence in this assay (Q9UK73 whole entry, looked up): as the sequence (Q9UK73 whole entry, looked up) above

[19] = biological target: T1, Protein fem-1 homolog B/Histone deacetylase 1; assay: PROTAC activity at FEM1B/HDAC1 in human MM.1S cell lysate assessed as maximal initial degradation at measured after 24 hrs by Western immunoassay relative to control; assay type: subcellular; conditions: MM1.S
Target sequence in this assay (Q13547 whole entry, looked up): as the sequence (Q13547 whole entry, looked up) above
Target sequence in this assay (Q9UK73 whole entry, looked up): as the sequence (Q9UK73 whole entry, looked up) above

[20] = biological target: T1, Protein fem-1 homolog B/Histone deacetylase 1; assay: PROTAC activity at FEM1B/HDAC1 in human MM1.S cell lysate assessed as protein degradation at 1 uM measured after 24 hrs by Western immunoassay; assay type: subcellular
[21] = biological target: Protein fem-1 homolog B/Histone deacetylase 2 (Homo sapiens) (UniProt Q92769+Q9UK73); assay: PROTAC activity at FEM1B/HDAC2 in human MM1.S cell lysate assessed as protein degradation at 1 uM measured after 24 hrs by Western immunoassay; assay type: subcellular
[22] = biological target: Protein fem-1 homolog B/Histone deacetylase 3 (Homo sapiens) (UniProt O15379+Q9UK73); assay: PROTAC activity at FEM1B/HDAC3 in human MM1.S cell lysate assessed as protein degradation at 1 uM measured after 24 hrs by Western immunoassay; assay type: subcellular
[23] = biological target: Protein fem-1 homolog B/Protein deacetylase HDAC6 (Homo sapiens) (UniProt Q9UBN7+Q9UK73); assay: PROTAC activity at FEM1B/HDAC6 in human MM1.S cell lysate assessed as protein degradation at 1 uM measured after 24 hrs by Western immunoassay; assay type: subcellular
[24] = biological target: Protein fem-1 homolog B/Histone deacetylase 4 (Homo sapiens) (UniProt P56524+Q9UK73); assay: PROTAC activity at FEM1B/HDAC4 in human MM1.S cell lysate assessed as protein degradation at 1 uM measured after 24 hrs by Western immunoassay; assay type: subcellular
[25] = biological target: Protein fem-1 homolog B/Histone deacetylase 8 (Homo sapiens) (UniProt Q9BY41+Q9UK73); assay: PROTAC activity at FEM1B/HDAC8 in human MM1.S cell lysate assessed as protein degradation at 1 uM measured after 24 hrs by Western immunoassay; assay type: subcellular
MM1.S [26] = assay: Antiproliferative activity against human MM1.S cells assessed as cell viability measured after 72 hrs incubation by MTT assay; assay type: functional, cell-based

SMILES: CCC(=O)N(CCC#N)c1ccc2c(c1)OCCN2CC(=O)NCC(=O)Nc1ccc(C(=O)NCCCCCCC(=O)NO)cc1.O=C(O)C(F)(F)F
- Activity [1]: inactive
- Activity [2]: inactive
- Activity [3]: inactive
- Activity [4]: inactive
- pEC50 (MV4-11): 4.85
- Activity (MDA-MB-231 [5]): <=25%
- Activity (U-87 MG [6]): <=25%
- Activity (MM1.S [7]): inactive
- Activity (MM1.S [8]): inactive
- Activity (MM1.S [9]): inactive
- Activity (MM1.S [10]): inactive
- Activity (MM1.S [11]): <=25%

SMILES: N#CCCN(C(=O)CCl)c1ccc2c(c1)OCCN2CC(=O)NCC(=O)Nc1ccc(C(=O)NCCCCCCC(=O)NO)cc1
- pEC50 (MM1.S [12]; mm1.s): 5.63
- DC50 [13]: 257 nM
- pIC50 (Histone deacetylase 1): 7.13
- pIC50 (Histone deacetylase 2): 6.81
- pIC50 (Histone deacetylase 4): 4.88
- pIC50 [14]: 8.05
- pEC50 (MV4-11): 6.02
- pEC50 (MDA-MB-231 [15]): 4.58
- pEC50 (U-87 MG [16]): 4.43

SMILES: O=C(CCCCCCC(=O)Nc1ccccc1)NO [VORINOSTAT]
- IC50 (Histone deacetylase 4): Not_active

SMILES: N#CCCN(C(=O)CCl)c1ccc2c(c1)OCCN2CC(=O)NC1CCC(C(=O)Nc2ccc(C(=O)NCCCCCCC(=O)NO)cc2)CC1 (stereo unspecified)
- pEC50 (MM1.S [12]; Homo sapiens, MM1.S, 72 h): 5.11

SMILES: O=C(CCCCCCNC(=O)c1ccc(NC(=O)CCCCCCCNC(=O)COc2cccc3c2C(=O)N(C2CCC(=O)NC2=O)C3=O)cc1)NO (stereo unspecified)
- Activity (MM1.S [17]): inactive
- pEC50 (MV4-11): 4.76
- Activity (MDA-MB-231 [5]): <=25%
- Activity (U-87 MG [6]): <=25%
- Activity (MM1.S [7]): inactive
- Activity (MM1.S [8]): inactive
- Activity (MM1.S [9]): inactive
- Activity (MM1.S [10]): inactive
- Activity (MM1.S [11]): <=25%

SMILES: N#CCCN(C(=O)CCl)c1ccc2c(c1)OCCN2CC(=O)NCCCCCCCCCCCC(=O)Nc1ccc(C(=O)NCCCCCCC(=O)NO)cc1
- pEC50 (MM1.S [12]; Homo sapiens, MM1.S, 72 h): 5.82

SMILES: N#CCCN(C(=O)CCl)c1ccc2c(c1)OCCN2CC(=O)NCCCCCCCC(=O)Nc1ccc(C(=O)NCCCCCCC(=O)NO)cc1
- pEC50 (MM1.S [12]; Homo sapiens, MM1.S, 72 h): 5.64
- Activity [18]: 52.8%
- DC50 [13]: 228 nM
- Emax [19]: 67.4%
- pIC50 (Histone deacetylase 1): 7.15
- pIC50 (Histone deacetylase 2): 6.84
- pIC50 (Histone deacetylase 4): 5.44
- pIC50 [14]: 8.40
- Activity [20]: Active
- Activity [21]: Active
- Activity [22]: Active
- Activity [23]: inactive
- Activity [24]: inactive
- Activity [25]: inactive
- pEC50 (MM1.S [26]): 5.64
- pEC50 (MV4-11): 6.45
- pEC50 (MDA-MB-231 [15]): 4.63
- pEC50 (U-87 MG [16]): 4.30
- Activity (MM1.S [7]): Active
- Activity (MM1.S [8]): Active
- Activity (MM1.S [9]): Active
- Activity (MM1.S [10]): Active

SMILES: N#CCCN(C(=O)CCl)c1ccc2c(c1)OCCN2CC(=O)NCCOCCOCCOCCC(=O)Nc1ccc(C(=O)NCCCCCCC(=O)NO)cc1
- pEC50 (MM1.S [12]; Homo sapiens, MM1.S, 72 h): 4.45
